These results are taken from ChEMBL document CHEMBL4665787, “Bifunctional and Unusual Amino Acid β- or γ-Ester Prodrugs of Nucleoside Analogues for Improved Affinity to ATB and Enhanced Metabolic Stability: An Application to Floxuridine” (J Med Chem, 2020).

The target in series [1] is T1, Sodium- and chloride-dependent neutral and basic amino acid transporter B(0+) (Homo sapiens, UniProt Q9UN76).
T1 sequence (Q9UN76 whole entry): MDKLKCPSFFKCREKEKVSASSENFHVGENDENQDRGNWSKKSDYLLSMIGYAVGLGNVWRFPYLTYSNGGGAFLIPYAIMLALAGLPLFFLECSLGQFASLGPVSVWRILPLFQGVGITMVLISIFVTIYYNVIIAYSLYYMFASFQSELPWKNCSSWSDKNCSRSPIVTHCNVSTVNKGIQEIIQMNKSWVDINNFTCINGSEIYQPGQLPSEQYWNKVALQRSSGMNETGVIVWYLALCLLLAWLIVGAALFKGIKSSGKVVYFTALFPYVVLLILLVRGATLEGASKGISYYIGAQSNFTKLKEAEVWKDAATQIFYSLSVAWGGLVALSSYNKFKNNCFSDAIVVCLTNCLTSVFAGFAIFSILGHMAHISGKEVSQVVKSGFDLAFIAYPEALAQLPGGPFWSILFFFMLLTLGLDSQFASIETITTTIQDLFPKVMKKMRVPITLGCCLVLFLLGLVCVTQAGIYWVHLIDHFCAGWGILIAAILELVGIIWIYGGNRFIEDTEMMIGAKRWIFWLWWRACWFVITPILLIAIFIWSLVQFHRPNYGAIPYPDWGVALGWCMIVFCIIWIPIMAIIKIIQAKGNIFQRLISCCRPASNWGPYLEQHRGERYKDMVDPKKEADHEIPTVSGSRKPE
Description: Substrate activity at SLC6A14 (unknown origin) expressed in Xenopus laevis oocytes assessed as inhibition of glycine uptake incubated for 10 mins by HPLC/MS/MS analysis. It counts as cell-based, Oocyte.

Series [2] has as its target T2, Solute carrier family 15 member 1 (Homo sapiens, UniProt P46059).
T2 sequence (P46059 whole entry): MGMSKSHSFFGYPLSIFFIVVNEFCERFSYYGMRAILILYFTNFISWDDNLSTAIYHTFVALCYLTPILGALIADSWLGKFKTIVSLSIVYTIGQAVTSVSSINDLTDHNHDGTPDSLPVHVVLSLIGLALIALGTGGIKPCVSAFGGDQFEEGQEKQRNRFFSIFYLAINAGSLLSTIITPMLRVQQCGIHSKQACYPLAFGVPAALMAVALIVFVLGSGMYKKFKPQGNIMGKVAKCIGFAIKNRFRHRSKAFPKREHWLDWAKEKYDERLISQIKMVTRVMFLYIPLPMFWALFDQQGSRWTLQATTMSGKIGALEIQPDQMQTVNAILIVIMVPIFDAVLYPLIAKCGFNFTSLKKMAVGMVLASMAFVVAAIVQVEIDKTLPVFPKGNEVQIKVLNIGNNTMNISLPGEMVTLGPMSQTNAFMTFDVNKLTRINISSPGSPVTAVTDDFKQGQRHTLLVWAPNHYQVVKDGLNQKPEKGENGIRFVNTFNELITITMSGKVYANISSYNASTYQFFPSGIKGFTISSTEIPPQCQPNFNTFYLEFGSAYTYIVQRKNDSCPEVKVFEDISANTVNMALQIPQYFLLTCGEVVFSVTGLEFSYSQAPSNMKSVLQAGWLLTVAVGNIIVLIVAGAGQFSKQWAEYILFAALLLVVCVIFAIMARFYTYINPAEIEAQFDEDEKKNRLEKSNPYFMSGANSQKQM
As to the kind of experiment: Substrate activity at PEPT1 (unknown origin) expressed in MDCK cells assessed as inhibition of gly-sar uptake incubated for 10 mins by HPLC/MS/MS analysis. It counts as cell-based.

The target of series [3] is T2, Solute carrier family 15 member 1. As to the kind of experiment: Substrate activity at PEPT1 (unknown origin) expressed in MDCK cells assessed as PEPT1 mediated drug uptake at 0.5 mM incubated for 10 mins by HPLC analysis. It is filed as ADME, cell-based. Conditions: 500 µM.
Series [4] in a line: Half life of compound in PBS buffer at pH 7.4 at 200 uM by HPLC analysis. It is filed as physicochemical.
The nature of series [5]: Half life in rat plasma at 200 uM measured up to 120 mins by HPLC-MS/MS analysis. It counts as ADME, cell-free.
Series [6] in a line: Toxicity in NOD SCID nude mouse xenografted with human ZR-75-1 cells assessed as body weight at 90 mg/kg, iv for 20 days (reference value: 29.2 +/- 2.5g). It counts as organism-based. As to conditions: in vivo, 480 h, time 20 day.
A further series relates to ZR-75-1. Description: Antitumour activity against human ZR-75-1 cells xenografted in NOD SCID nude mouse assessed as tumour inhibition at 90 mg/kg, iv administered for 20 days measured every 2 day by caliper method relative to control. It is filed as functional. As to conditions: ZR-75-1, iv, 480 h, time 20 day.
Series [7] is described as follows: Cmax in NOD SCID nude mouse plasma xenografted with ZR-75-1 cells assessed as floxuridine; 5-fluoro-2-deoxyuridine concentration at 90 mg/kg, iv measured up to 24 hrs by HPLC-MS/MS analysis. It is filed as ADME, organism-based. Further details: route intravenous, dose 90 mg/kg, time <=24. Conditions: in vivo.
A short description of series [8]: AUC (0 to t) in NOD SCID nude mouse plasma xenografted with ZR-75-1 cells assessed as fluorouracil AUC at 90 mg/kg, iv measured up to 24 hrs by HPLC-MS/MS analysis. Conditions: in vivo. On the set-up: route intravenous, dose 90 mg/kg, time <=24. It is filed as ADME, organism-based.

As to `N[C@@H](CC(=O)OC[C@H]1O[C@@H](n2cc(F)c(=O)[nH]c2=O)C[C@@H]1O)C(=O)O`, the IC50 in series [1] is 0.82 mM; in [2], 10.2 mM. In addition, the Drug uptake in series [3] was under 0.04 nmol/mg/min. Further, the half-life at 200 µM was determined as 4.77 h in series [4] and 2.49 h in [5]. In series [6], the Activity was found to be 26.8 g. For the same compound, in the series on ZR-75-1, the inhibition in vivo at 90 mg/kg was 58.6%. Also, the peak concentration (Cmax) in [7] was determined as 145.9 ng/mL. Further, the AUCt in series [8] was 588.2 ng·h/mL.

The IC50 is the midpoint of a concentration-inhibition curve. What is called half-life is the time needed for the level to fall by half in the phase considered. Low values mean fast loss, high ones slow loss. As usually defined, the inhibition in vivo is how much of the control response was suppressed. For orientation: Cmax means the highest concentration seen after dosing.
